Reference: paper PMC6980656 (Cell chemical biology, 2019)

How the values were obtained:
[1] = tested on: phosphorylation of CDK1 at Tyr15 (pCDK1 Y15); experiment: Immunoblot of pCDK1 Y15 in parental MOLT4 cells; type: cell-based
[2] = tested on: MCF10A non-transformed mammary epithelial cell line; experiment: Image-based cell cycle assay in MCF10A
PLK1 [3] = target: T1, PLK1 (Homo sapiens, UniProt P53350); experiment: KINOMEscan profiling; type: binding; details: 1 μM
[4] = tested on: pCDK1 Y15, PARP cleavage, γH2Ax; experiment: Immunoblot of downstream markers; type: cell-based; details: MOLT4 cells; for downstream changes (pCDK1 Y15, PARP cleavage, γH2Ax): 100 nM
Wee1 [5] = target: T2, Wee1 (Homo sapiens, UniProt P30291); experiment: Immunoblot of Wee1 degradation in parental MOLT4 cells; type: cell-based
MOLT4 cells [6] = experiment: Cell cycle analysis by propidium iodide staining, parental MOLT4; type: cell-based; details: PI staining; for effect on cell cycle (G2/M proportion): 100 nM
Wee1 [7] = target: T2, Wee1; experiment: KINOMEscan profiling; type: binding; details: 1 μM
MOLT4 cells [8] = experiment: CellTiter-Glo cell viability, parental MOLT4; type: cell-based; details: for IC50: Homo sapiens, MOLT-4, 72 h, read-out: IC50, antiproliferative activity
Wee1 [9] = target: T2, Wee1; experiment: LanthaScreen FRET-based assay; type: binding; details: for engagement of recombinant Wee1: LanthaScreen, Table S1
[10] = tested on: 300 suspension and hematopoietic cancer cell lines; experiment: PRISM pooled cytotoxicity assay; type: cell-based
CRBN−/− MOLT4 cells = experiment: Cell cycle analysis by propidium iodide staining, CRBN−/− MOLT4; type: cell-based; details: 100 nM, 24 hrs
Ikaros (IKZF1) = Ikaros (IKZF1) (Homo sapiens, UniProt Q13422+Q96SW2); experiment: IKZF1 degradation, proteomics/immunoblotting; type: cell-based
Wee1 [11] = target: T2, Wee1; experiment: Immunoblot of Wee1 degradation in CRBN−/− MOLT4 cells; type: cell-based; details: 5 hrs
ZFP91 = ZFP91 (Homo sapiens, UniProt Q96JP5+Q96SW2); experiment: ZFP91 abundance by proteomics in MOLT4 cells; type: cell-based; details: 100 nM, 2 hrs
PLK1 [12] = target: T1, PLK1; experiment: PLK1 abundance by proteomics and immunoblot in MOLT4 cells; type: cell-based; details: proteomics (100 nM, 2 hrs) or immunoblot
OVCAR8 cells = experiment: Synergy co-treatment, CellTiter-Glo in OVCAR8 cells; type: cell-based; details: for synergy with Olaparib: 72 hr co-treatment
[13] = tested on: OVCAR8, COV283, and Kuramochi ovarian cancer cell lines; experiment: Viability in ovarian cancer cell line panel; type: cell-based
[14] = tested on: BT549, HCC1806, COV362, Kuramochi, OVCAR8 cell lines; experiment: Image-based cell cycle assay in TNBC and ovarian cancer cell lines
Aiolos (IKZF3) = Aiolos (IKZF3) (Homo sapiens, UniProt Q96SW2+Q9UKT9); experiment: IKZF3 degradation, proteomics/immunoblotting; type: cell-based
[15] = tested on: phosphorylation of CDK1 at Tyr15 (pCDK1 Y15); experiment: Immunoblot of pCDK1 Y15 in CRBN−/− MOLT4 cells; type: cell-based; details: 5 hrs
Wee1 [16] = target: T2, Wee1; experiment: Wee1 degradation in OVCAR8 cells; type: cell-based
MOLT4 CRBN−/− cells = experiment: CellTiter-Glo cell viability, CRBN−/− MOLT4; type: cell-based; details: 72 hrs
[17] = tested on: OCE1 non-malignant ovarian line; experiment: Viability in non-malignant ovarian line; type: cell-based
[18] = 24 hr treatment, immunoblotting
[19] = MOLT4 cells, 2 hrs pretreatment then 5 hrs co-treatment

T2 sequence (P30291 whole entry): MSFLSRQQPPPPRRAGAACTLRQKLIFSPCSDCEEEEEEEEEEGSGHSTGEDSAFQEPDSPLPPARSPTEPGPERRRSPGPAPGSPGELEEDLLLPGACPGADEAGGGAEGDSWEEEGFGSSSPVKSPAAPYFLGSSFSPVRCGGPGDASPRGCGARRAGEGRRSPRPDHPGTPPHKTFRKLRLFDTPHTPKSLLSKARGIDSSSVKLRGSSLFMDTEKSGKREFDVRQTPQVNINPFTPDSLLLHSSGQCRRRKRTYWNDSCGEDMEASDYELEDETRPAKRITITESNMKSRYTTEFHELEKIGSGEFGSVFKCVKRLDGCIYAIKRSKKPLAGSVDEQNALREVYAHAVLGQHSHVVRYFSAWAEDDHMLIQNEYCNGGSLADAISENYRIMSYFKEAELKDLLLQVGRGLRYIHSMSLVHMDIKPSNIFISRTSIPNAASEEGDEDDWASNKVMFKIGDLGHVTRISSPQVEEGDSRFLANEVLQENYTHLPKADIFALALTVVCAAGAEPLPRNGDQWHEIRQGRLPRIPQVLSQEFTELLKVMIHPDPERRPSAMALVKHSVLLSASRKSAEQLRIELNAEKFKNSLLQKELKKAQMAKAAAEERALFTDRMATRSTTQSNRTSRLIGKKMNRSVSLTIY
T1 sequence (P53350 whole entry): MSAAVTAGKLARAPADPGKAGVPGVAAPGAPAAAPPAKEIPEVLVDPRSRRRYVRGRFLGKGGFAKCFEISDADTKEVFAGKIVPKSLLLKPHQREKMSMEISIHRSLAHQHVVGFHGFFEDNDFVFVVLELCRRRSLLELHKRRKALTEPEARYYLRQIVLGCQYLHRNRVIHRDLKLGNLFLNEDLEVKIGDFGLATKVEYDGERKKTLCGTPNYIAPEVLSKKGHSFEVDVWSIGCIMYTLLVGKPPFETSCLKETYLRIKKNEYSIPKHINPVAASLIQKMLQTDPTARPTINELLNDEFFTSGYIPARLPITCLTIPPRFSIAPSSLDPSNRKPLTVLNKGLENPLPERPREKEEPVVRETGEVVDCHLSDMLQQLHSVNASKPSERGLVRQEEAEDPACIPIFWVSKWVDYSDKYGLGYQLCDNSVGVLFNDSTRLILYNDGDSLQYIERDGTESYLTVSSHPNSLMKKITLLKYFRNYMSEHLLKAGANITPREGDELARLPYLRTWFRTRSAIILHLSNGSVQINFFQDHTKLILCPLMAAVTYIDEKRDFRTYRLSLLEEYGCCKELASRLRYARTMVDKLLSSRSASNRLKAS
Aiolos (IKZF3), sequence (Q9UKT9 whole entry): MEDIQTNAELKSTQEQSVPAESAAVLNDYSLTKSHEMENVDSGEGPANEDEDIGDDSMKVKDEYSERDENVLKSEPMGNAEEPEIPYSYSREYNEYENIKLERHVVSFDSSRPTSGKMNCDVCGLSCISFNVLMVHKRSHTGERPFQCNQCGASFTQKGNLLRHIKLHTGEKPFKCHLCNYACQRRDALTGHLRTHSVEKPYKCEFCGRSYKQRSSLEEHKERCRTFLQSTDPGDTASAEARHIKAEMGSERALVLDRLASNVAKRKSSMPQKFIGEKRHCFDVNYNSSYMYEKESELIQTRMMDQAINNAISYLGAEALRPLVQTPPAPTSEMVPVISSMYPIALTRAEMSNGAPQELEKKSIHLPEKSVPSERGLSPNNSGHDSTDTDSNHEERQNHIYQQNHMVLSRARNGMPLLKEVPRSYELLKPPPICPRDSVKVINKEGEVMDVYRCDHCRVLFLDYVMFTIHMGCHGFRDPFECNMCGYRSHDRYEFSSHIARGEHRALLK
Aiolos (IKZF3), sequence (Q96SW2 whole entry): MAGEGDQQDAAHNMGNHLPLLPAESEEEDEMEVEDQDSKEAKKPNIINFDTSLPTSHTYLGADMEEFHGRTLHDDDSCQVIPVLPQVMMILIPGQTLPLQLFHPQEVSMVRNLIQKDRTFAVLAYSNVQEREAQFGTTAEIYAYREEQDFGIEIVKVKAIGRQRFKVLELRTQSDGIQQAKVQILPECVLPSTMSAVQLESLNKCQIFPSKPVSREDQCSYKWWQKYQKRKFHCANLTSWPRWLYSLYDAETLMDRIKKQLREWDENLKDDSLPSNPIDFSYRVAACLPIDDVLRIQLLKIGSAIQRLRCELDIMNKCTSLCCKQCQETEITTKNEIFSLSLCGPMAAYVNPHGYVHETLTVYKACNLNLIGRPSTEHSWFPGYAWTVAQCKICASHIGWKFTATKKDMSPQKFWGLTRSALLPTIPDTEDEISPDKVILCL
Aiolos (IKZF3), sequence (Q16531 whole entry partner): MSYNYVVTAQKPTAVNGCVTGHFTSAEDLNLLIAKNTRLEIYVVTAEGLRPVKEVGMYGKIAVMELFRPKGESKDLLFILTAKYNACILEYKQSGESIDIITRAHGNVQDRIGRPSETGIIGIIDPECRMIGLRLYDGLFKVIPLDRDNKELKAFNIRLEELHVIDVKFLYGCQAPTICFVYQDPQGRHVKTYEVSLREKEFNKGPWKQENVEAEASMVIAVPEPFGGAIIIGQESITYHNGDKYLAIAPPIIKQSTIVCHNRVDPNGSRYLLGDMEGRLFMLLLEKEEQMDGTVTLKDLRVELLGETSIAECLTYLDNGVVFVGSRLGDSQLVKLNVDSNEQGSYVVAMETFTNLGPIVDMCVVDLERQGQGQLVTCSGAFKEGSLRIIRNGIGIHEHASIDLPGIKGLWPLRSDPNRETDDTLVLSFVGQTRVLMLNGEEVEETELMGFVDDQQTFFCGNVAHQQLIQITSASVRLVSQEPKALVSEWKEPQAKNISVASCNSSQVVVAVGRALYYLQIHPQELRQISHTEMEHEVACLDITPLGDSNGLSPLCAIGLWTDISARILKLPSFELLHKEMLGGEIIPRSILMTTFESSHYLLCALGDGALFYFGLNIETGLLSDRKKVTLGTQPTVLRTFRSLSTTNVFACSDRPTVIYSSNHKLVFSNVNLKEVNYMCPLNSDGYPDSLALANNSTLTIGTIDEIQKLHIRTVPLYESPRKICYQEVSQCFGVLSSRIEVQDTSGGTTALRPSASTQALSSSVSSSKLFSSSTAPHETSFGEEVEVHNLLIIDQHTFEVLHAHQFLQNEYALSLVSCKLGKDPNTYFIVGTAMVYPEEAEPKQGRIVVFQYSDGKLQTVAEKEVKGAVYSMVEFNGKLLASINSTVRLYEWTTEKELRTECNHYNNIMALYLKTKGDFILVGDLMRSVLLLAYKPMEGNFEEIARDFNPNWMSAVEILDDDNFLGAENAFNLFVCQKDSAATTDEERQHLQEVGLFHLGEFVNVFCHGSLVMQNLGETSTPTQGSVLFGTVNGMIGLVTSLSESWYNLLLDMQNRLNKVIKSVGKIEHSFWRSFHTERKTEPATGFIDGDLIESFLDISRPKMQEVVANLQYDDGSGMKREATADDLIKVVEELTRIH
Ikaros (IKZF1), sequence (Q13422 whole entry): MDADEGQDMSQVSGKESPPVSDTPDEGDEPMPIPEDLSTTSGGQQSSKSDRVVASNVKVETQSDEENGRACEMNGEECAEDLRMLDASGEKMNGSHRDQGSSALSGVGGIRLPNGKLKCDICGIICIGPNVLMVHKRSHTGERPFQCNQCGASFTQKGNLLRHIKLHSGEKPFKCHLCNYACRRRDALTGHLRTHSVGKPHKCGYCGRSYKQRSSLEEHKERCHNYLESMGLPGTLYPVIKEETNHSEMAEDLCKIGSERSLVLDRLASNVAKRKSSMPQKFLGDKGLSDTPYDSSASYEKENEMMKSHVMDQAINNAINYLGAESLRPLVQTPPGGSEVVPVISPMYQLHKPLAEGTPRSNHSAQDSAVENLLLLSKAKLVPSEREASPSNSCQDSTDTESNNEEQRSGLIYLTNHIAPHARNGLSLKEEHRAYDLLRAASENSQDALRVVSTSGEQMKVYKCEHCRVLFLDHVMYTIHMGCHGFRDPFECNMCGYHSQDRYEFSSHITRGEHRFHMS
Ikaros (IKZF1), sequence (Q96SW2 whole entry): as the sequence (Q96SW2 whole entry) above
Ikaros (IKZF1), sequence (Q16531 whole entry partner): as the sequence (Q16531 whole entry partner) above
ZFP91, sequence (Q96JP5 whole entry): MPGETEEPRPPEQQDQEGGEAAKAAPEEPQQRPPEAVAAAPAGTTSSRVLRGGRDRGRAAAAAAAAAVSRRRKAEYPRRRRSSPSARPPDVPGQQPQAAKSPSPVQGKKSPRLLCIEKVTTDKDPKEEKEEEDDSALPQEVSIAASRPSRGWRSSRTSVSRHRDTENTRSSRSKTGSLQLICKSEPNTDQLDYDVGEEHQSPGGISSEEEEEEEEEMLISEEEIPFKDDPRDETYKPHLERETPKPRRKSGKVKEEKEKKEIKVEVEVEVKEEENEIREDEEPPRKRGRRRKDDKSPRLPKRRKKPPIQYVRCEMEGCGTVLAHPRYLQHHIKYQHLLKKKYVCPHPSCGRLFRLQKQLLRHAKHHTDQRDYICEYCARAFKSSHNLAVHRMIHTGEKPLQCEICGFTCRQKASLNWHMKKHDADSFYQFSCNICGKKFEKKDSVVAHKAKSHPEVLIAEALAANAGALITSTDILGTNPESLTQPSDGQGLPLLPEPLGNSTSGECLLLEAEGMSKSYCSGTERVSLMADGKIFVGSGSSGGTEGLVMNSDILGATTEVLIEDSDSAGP
ZFP91, sequence (Q96SW2 whole entry): as the sequence (Q96SW2 whole entry) above
ZFP91, sequence (Q16531 whole entry partner): as the sequence (Q16531 whole entry partner) above

## C=CCn1c(=O)c2cnc(Nc3ccc(N4CCN(C)CC4)cc3)nc2n1-c1cccc(C(C)(C)O)n1 [AZD1775, reference compound]
[1]; MOLT4 cells, 1 μM pretreatment alone, independent of ZNL-02-096 co-treatment
  effect on pCDK1 Y15: decreased pCDK1 Y15
[2]
  cell cycle changes: neither ZNL-02-096 nor AZD1775 induced significant cell cycle changes
PLK1 [3]
  KINOMEscan engagement of PLK1: strong engagement
[4]; 24 hr
  concentration necessary to produce the same downstream changes: 1 µM
  downstream changes (pCDK1 Y15, PARP cleavage, γH2Ax): did not produce these downstream changes
Wee1 [5]; MOLT4 cells, 5 hr treatment
  Wee1 degradation (immunoblot, in words): insufficient to induce Wee1 degradation
MOLT4 cells [6]
  effect on cell cycle (G2/M proportion): did not appreciably affect the cell cycle
  dose needed to elicit the same cell cycle changes as 100 nM ZNL-02-096: 1 µM
Wee1 [7]
  KINOMEscan engagement of Wee1: strong engagement
MOLT4 cells [8]
  IC50: 800 nM

## C=CCn1c(=O)c2cnc(Nc3ccc(N4CCN(CCOCCOCCOCCNc5cccc6c5C(=O)N(C5CCC(=O)NC5=O)C6=O)CC4)cc3)nc2n1-c1cccc(C(C)(C)O)n1 (stereo not shown) [ZNL-02-047, 4-((2-(2-(2-(2-(4-(4-((2-Allyl-1-(6-(2-hydroxypropan-2-yl)pyridin-2-yl)-3-oxo-2,3-dihydro-1H-pyrazolo[3,4-d]pyrimidin-6-yl)amino)phenyl)piperazin-1-yl)ethoxy)ethoxy)ethoxy)ethyl)amino)-2-(2,6-dioxopiperidin-3-yl)isoindoline-1,3-dione]
Wee1 [5]; MOLT4 cells, 5 hr treatment
  Wee1 degradation (immunoblot, in words): induced Wee1 degradation
  concentration sufficient to degrade Wee1: 100 nM
Wee1 [9]
  IC50: 1 to 10 nM

## C=CCn1c(=O)c2cnc(Nc3ccc(N4CCN(CCCNc5cccc6c5C(=O)N(C5CCC(=O)NC5=O)C6=O)CC4)cc3)nc2n1-c1cccc(C(C)(C)O)n1 (stereo not shown) [ZNL-02-096, 4-((3-(4-(4-((2-Allyl-1-(6-(2-hydroxypropan-2-yl)pyridin-2-yl)-3-oxo-2,3-dihydro-1H-pyrazolo[3,4-d]pyrimidin-6-yl)amino)phenyl)piperazin-1-yl)propyl)amino)-2-(2,6-dioxopiperidin-3-yl)isoindoline-1,3-dione]
[10]; read-out: IC50, PRISM
  IC50: < 1000 nM
CRBN−/− MOLT4 cells
  G2/M accumulation: absent
[1]; parental MOLT4 cells, 5 hrs
  dose from which pCDK1 Y15 is reduced: 100 nM
Ikaros (IKZF1); [18]
  IKZF1 degradation: degradation of both IKZF1 and IKZF3 was apparent
Ikaros (IKZF1); short time points
  IKZF1 degradation: no degradation of either IKZF1 or IKZF3
[2]
  cell cycle changes: neither ZNL-02-096 nor AZD1775 induced significant cell cycle changes
PLK1 [3]
  KINOMEscan engagement of PLK1: strong engagement
[4]
  fold lower dose than AZD1775 for the same downstream effects: 10 fold
[4]; 24 hr
  concentration producing reduced pCDK1 Y15, PARP cleavage and γH2Ax: 100 nM
Wee1 [11]
  effect on Wee1 abundance: did not affect Wee1 abundance
ZFP91
  ZFP91 degradation: low levels of ZFP91 degradation
PLK1 [12]
  PLK1 downregulation: No downregulation of PLK1
OVCAR8 cells
  synergy with Olaparib: synergized with Olaparib
Wee1 [5]; MOLT4 cells, 100 nM
  time to complete Wee1 degradation: ≤ 3 h
Wee1 [5]; MOLT4 cells, 100 nM, within 30 min
  Wee1 degradation: over 50%
Wee1 [5]; [19]
  Wee1 degradation by ZNL-02-096 after MLN4924 pretreatment: prevented
  Wee1 degradation by ZNL-02-096 after carfilzomib pretreatment: rescued
  Wee1 degradation by ZNL-02-096 after pretreatment with excess AZD1775: prevented ZNL-02-096-induced Wee1 degradation
  Wee1 degradation by ZNL-02-096 after pretreatment with excess pomalidomide: only partial rescue
Wee1 [5]; MOLT4 cells, 5 hr treatment
  Wee1 degradation (immunoblot, in words): degradation was most pronounced
Wee1 [5]; MOLT4 cells, single 100 nM treatment
  duration of sustained Wee1 loss: at least 48 hrs
Wee1 [5]; parental MOLT4 cells, 5 hrs
  concentration of maximal Wee1 degradation: 100 nM
Wee1 [5]; parental MOLT4 cells, 5 hrs, top concentration
  concentration at which hook effect is apparent: 10 µM
[13]
  cell death: induced potent cell death
MOLT4 cells [6]
  effect on cell cycle (G2/M proportion): increased the proportion of MOLT4 cells in G2/M in a time-dependent manner
Wee1 [9]
  engagement of recombinant Wee1: potently engaged recombinant Wee1
Wee1 [7]
  KINOMEscan engagement of Wee1: strong engagement
MOLT4 cells [8]
  IC50: 390 nM
[14]
  G2/M phase accumulation: induced G2/M phase accumulation at lower doses than either ZNL-02-178 or AZD1775
Aiolos (IKZF3); [18]
  IKZF3 degradation: degradation of both IKZF1 and IKZF3 was apparent
Aiolos (IKZF3); short time points
  IKZF3 degradation: no degradation of either IKZF1 or IKZF3
[15]
  dose from which pCDK1 Y15 is decreased: 1 μM
Wee1 [16]
  concentration of maximal Wee1 degradation: 100 nM
MOLT4 CRBN−/− cells
  shift in IC50, MOLT4 CRBN−/− versus parental cells: approximately 6 fold
[17]
  cytotoxicity: little cytotoxicity

## C=CCn1c(=O)c2cnc(Nc3ccc(N4CCN(CCCNC(=O)CCOCCOCCNc5cccc6c5C(=O)N(C5CCC(=O)NC5=O)C6=O)CC4)cc3)nc2n1-c1cccc(C(C)(C)O)n1 (stereo not shown) [ZNL-02-012, N-(3-(4-(4-((2-allyl-1-(6-(2-hydroxypropan-2-yl)pyridin-2-yl)-3-oxo-2,3-dihydro-1H-pyrazolo[3,4-d]pyrimidin-6-yl)amino)phenyl)piperazin-1-yl)propyl)-3-(2-(2-((2-(2,6-dioxopiperidin-3-yl)-1,3-dioxoisoindolin-4-yl)amino)ethoxy)ethoxy)propenamide]
Wee1 [5]; MOLT4 cells, 5 hr treatment
  Wee1 degradation (immunoblot, in words): induced Wee1 degradation
  concentration required to achieve maximal Wee1 degradation: 1 µM
Wee1 [9]
  IC50: 1 to 10 nM

## Nc1cccc2c1C(=O)N(C1CCC(=O)NC1=O)C2=O (stereo not shown) [pomalidomide, reference compound]
[4]; 24 hr, 1 μM
  effect on pCDK1 Y15, apoptosis, DNA damage: did not affect phosphorylation of CDK1 Y15, apoptosis, or levels of DNA damage
OVCAR8 cells
  synergy with Olaparib: not synergistic
OVCAR8 cells; co-treatment
  synergy with AZD1775: not synergistic
Wee1 [5]; MOLT4 cells, 5 hr treatment
  Wee1 degradation (immunoblot, in words): insufficient to induce Wee1 degradation
MOLT4 cells [8]; alone, Fig. S3
  cytotoxicity: no detectable cytotoxicity

## C=CCn1c(=O)c2cnc(Nc3ccc(N4CCN(CCCCCCNc5cccc6c5C(=O)N(C5CCC(=O)NC5=O)C6=O)CC4)cc3)nc2n1-c1cccc(C(C)(C)O)n1 (stereo not shown) [ZNL-02-040, 4-((6-(4-(4-((2-Allyl-1-(6-(2-hydroxypropan-2-yl)pyridin-2-yl)-3-oxo-2,3-dihydro-1H-pyrazolo[3,4-d]pyrimidin-6-yl)amino)phenyl)piperazin-1-yl)hexyl)amino)-2-(2,6-dioxopiperidin-3-yl)isoindoline-1,3-dione]
Wee1 [5]; MOLT4 cells, 5 hr treatment
  Wee1 degradation (immunoblot, in words): induced Wee1 degradation
Wee1 [9]
  engagement of recombinant Wee1: potently engaged recombinant Wee1

## C=CCn1c(=O)c2cnc(Nc3ccc(N4CCN(CCCNc5cccc6c5C(=O)N(C5CCC(=O)N(C)C5=O)C6=O)CC4)cc3)nc2n1-c1cccc(C(C)(C)O)n1 (stereo not shown) [ZNL-02-178, 4-((3-(4-(4-((2-allyl-1-(6-(2-hydroxypropan-2-yl)pyridin-2-yl)-3-oxo-2,3-dihydro-1H-pyrazolo[3,4-d]pyrimidin-6-yl)amino)phenyl)piperazin-1-yl)propyl)amino)-2-(1-methyl-2,6-dioxopiperidin-3-yl)is oindoline-1,3-dione]
[10]
  potency in PRISM relative to ZNL-02-096: uniformly less potent
[4]; 24 hr
  downstream changes (pCDK1 Y15, PARP cleavage, γH2Ax): did not produce these downstream changes
OVCAR8 cells
  synergy with Olaparib: less synergistic activity with Olaparib than ZNL-02-096 at low doses
Wee1 [5]; MOLT4 cells, 5 hr treatment
  Wee1 degradation (immunoblot, in words): inhibits but does not degrade Wee1
Wee1 [5]; MOLT4 cells, out to 48 hrs after treatment
  effect on Wee1 protein levels: no effect on Wee1 protein levels
MOLT4 cells [6]
  effect on cell cycle (G2/M proportion): did not appreciably affect the cell cycle
